Assay results taken from patent US20070093457A1, “Compositions for treatment of cancer and inflammation with curcumin and at least one nsaid” (priority 2004, published 2007).

Columns and labels:
RASFs = assay: RASF cell viability assay (XTT); type: cell-based; settings: Homo sapiens, 72 hours, read-out: IC50 cell growth
Procedure: RASFs that had been prepared from small pieces (2 mm in diameter) of human synovial tissue were grown after trypsinization in monolayers in tissue culture flasks, as known to a person skilled in the art. The synovial tissue specimens were obtained during total knee replacement surgery in patients diagnosed as having rheumatoid arthritis according to the revised criteria of the American College of Rheumatology. Synovial tissue was digested for 2 hours with 0.2% (weight/volume) bacterial collagenase and then suspended in Dulbecco's modified Eagle's medium (DMEM, Biological Industries, Israel) with 10% (volume/volume) fetal calf serum (FCS), 100 units/ml penicillin, and […] streptomycin. The cells were incubated at 37° C. in 5% CO2 for 3-5 days, after which the non-adherent cells were removed. Fibroblast-like adherent cells from the first or second passage were used as RASFs.
RASFs (1.5×10^4/well) were incubated at 37° C. in 96-well plastic plates with test drugs in DMEM containing 10% FCS in an atmosphere of 5% CO2 (fmal dimethyl sulfoxide concentration 0.1%). After 72 hours, cell viability was assessed by the ability of metabolically active cells to reduce tetrazolium salt (XTT) to colored formazan compounds. The absorbance of the samples was measured with a specific enzyme-linked immunoassay (ELISA) reader (wavelength 450 nm; reference wavelength 630 nm). […]

RASF cells = assay: RASF apoptosis, flow-cytometric analysis
COX-2 mRNA = assay: Reverse transcriptase PCR of COX-2 mRNA; type: cell-based, human; settings: HT-29; selected concentrations
Procedure: HT-29 cells were treated with the selected drugs as indicated. The mRNA was extracted, and equal amounts were transcribed to cDNA from a kit (Promega, CITY, USA). The cDNA was taken from samples at various times and used as the DNA templates for PCR. Primers used for COX-2 were: […]
GAPDH was used to ensure equal loading. […] were used as the template and […] of each primer was used for each cDNA sample. The samples went through 30 rounds of PCR. They were separated on 1% agarose gel and visualized by ethidium bromide. 7. Measurement of PGE2 Concentration

COX-2 = settings: HT-29; curcumin 10-15 μM
Procedure: PGE2 concentration in the medium, as released by the cells, was determined by a commercially available PGE2-specific enzyme-linked immunoassay (R&D Biosystems, Abingdon, UK) according to the manufacturer's protocol.

Compound | IC50 (RASFs) [µM] | cell apoptosis (cells with sub-diploid DNA content) (RASF cells; celecoxib 20-40 μM) | COX-2 mRNA expression (COX-2 mRNA) | effect on PGE2 synthesis (COX-2) | cell apoptosis (cells with sub-diploid DNA content) (RASF cells; curcumin 20 μM) [%]
Cc1ccc(-c2cc(C(F)(F)F)nn2-c2ccc(S(N)(=O)=O)cc2)cc1 [celecoxib, reference compound] | 40 | 4.8-19.2% | – | – | –
COc1cc(/C=C/C(=O)CC(=O)/C=C/c2ccc(O)c(OC)c2)ccc1O [curcumin] | 35 | – | no effect | dose-dependent effect | 4.7
